For orientation: pIC50 means the IC50 on a negative log10 scale, so that one unit is a factor of ten. Read a high pIC50 as a low IC50.

Here are results for 29 molecules from ChEMBL document CHEMBL4251605, “2-Substituted 7-trifluoromethyl-thiadiazolopyrimidones as alkaline phosphatase inhibitors. Synthesis, structure activity relationship and molecular docking study” (Eur J Med Chem, 2018).

Holding throughout (type): cell-based
Assay [1] concerns the target Intestinal-type alkaline phosphatase (Homo sapiens, UniProt P09923). The assay is described as follows: Inhibition of human IAP expressed in COS7 cells preincubated for 5 to 7 mins followed by CDP-star substrate addition measured after 15 to 20 mins by luminescence assay.
The target of assay [2] is T1, Alkaline phosphatase, tissue-nonspecific isozyme (Homo sapiens, UniProt P05186).
T1 sequence (P05186 whole entry): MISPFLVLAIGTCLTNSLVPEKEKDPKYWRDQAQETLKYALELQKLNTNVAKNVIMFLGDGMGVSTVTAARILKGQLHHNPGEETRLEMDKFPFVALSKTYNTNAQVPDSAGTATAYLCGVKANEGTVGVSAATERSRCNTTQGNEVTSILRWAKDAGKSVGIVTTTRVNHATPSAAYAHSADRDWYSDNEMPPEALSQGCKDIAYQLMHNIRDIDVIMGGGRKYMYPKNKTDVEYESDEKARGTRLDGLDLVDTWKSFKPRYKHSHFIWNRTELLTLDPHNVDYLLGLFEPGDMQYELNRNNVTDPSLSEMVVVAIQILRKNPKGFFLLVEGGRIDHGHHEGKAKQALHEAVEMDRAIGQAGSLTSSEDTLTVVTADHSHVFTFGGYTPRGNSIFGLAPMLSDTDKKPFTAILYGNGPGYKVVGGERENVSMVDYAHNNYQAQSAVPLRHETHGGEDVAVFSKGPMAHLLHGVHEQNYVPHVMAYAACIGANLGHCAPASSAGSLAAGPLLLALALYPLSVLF
The assay is described as follows: Inhibition of human TNAP expressed in COS7 cells preincubated for 5 to 7 mins followed by CDP-star substrate addition measured after 15 to 20 mins by luminescence assay.

For assay [3], the species on record is Homo sapiens. The assay is described as follows: Selectivity ratio of IC50 for human IAP expressed in COS7 cells to IC50 for human TNAP expressed in COS7 cells.

pIC50: −log10 of the molar value.

Intestinal-type alkaline phosphatase, sequence (P09923 whole entry): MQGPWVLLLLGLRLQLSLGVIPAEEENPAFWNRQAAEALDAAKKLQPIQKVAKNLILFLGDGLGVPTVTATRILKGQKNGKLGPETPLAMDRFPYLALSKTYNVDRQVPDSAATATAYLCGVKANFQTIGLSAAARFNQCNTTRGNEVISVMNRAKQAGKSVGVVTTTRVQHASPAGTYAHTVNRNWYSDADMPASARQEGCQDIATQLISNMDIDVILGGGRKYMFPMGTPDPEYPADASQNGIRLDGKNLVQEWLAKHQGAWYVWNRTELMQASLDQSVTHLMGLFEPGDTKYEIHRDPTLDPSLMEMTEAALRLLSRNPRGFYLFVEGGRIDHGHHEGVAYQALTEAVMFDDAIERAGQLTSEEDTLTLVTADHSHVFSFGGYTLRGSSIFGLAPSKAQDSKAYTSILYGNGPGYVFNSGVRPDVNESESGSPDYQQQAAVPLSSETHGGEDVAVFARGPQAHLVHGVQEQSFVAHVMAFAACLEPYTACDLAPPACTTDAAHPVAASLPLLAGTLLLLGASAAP

Take `N[C@@H](Cc1ccccc1)C(=O)O` [PHENYLALANINE]: the pIC50 in assay [1] was 4.10.
With `O=c1cc(C(F)(F)F)nc2sc(-c3ccccc3)nn12`, the pIC50 was 6.68 in assay [2] and 6.37 in assay [1].
For `COc1ccc(-c2nn3c(=O)cc(C(F)(F)F)nc3s2)cc1`, in that order: 6.55 and 6.32.
On to `CCOc1ccc(Nc2nn3c(=O)cc(C(F)(F)F)nc3s2)cc1`, for which the pIC50 is 5.80 in assay [2] and 5.69 in assay [1].
With `Cc1cc(C)cc(-c2nn3c(=O)cc(C(F)(F)F)nc3s2)c1`, the negative logarithm of the IC50 (pIC50) in assay [2] is 6.28; in assay [1], 6.34.
In the same order, the values of `CN(C)CCNc1nn2c(=O)cc(C(F)(F)F)nc2s1` are 6.35 and 5.43.
`Cc1ccc(-c2nn3c(=O)cc(C(F)(F)F)nc3s2)cc1C`: the values for the negative-log IC50 (pIC50) in assay [2] and in assay [1] were 6.27 and 5.76, respectively.
For `COc1ccccc1-c1nn2c(=O)cc(C(F)(F)F)nc2s1`, in that order: 5.46 and less than 4.00.
`O=c1cc(C(F)(F)F)nc2sc(-c3cccc(-c4ccccc4)c3)nn12`: the results for the negative logarithm of the IC50 (pIC50) in assay [2] and in assay [1] were 5.95 and 5.78, respectively.
On to `N#Cc1cccc(-c2nn3c(=O)cc(C(F)(F)F)nc3s2)c1`, for which the pIC50 in assay [2] is 6.25; in assay [1], 5.95.
Consider `O=c1cc(C(F)(F)F)nc2sc(-c3cccc(C(F)(F)F)c3)nn12`, for which the pIC50 in assay [2] was 6.28; in assay [1] it was 6.17.
As to `O=c1cc(C(F)(F)F)nc2sc(-c3ccccc3F)nn12`, the negative-log IC50 (pIC50) in assay [2] and in assay [1] was less than 4.00 each time.
Regarding `Cc1ccc(-c2nn3c(=O)cc(C(F)(F)F)nc3s2)cc1`, the results for the pIC50 in assay [2] and in assay [1] were 5.97 and 6.44, respectively.
As for `COc1cccc(Nc2nn3c(=O)cc(C(F)(F)F)nc3s2)c1`, the negative-log IC50 (pIC50) in assay [2] is 6.42; in assay [1], 6.36.
In the same order, the values of `CCCCN(CCCC)c1nn2c(=O)cc(C(F)(F)F)nc2s1` are 5.82 and 5.33.
With `CCOc1ccc(-c2nn3c(=O)cc(C(F)(F)F)nc3s2)cc1`, the values for the negative logarithm of the IC50 (pIC50) in assay [2] and in assay [1] were 6.03 and 6.10, respectively.
As to `COc1cc(OC)cc(-c2nn3c(=O)cc(C(F)(F)F)nc3s2)c1`, the figures for the pIC50 in assay [2] and in assay [1] were 5.94 and 6.12, respectively.
As to `Nc1ccc(Nc2nn3c(=O)cc(C(F)(F)F)nc3s2)cc1`, the figures for the pIC50 in assay [2] and in assay [1] were 6.48 and 6.15, respectively.
As for `CCCCNc1nn2c(=O)cc(C(F)(F)F)nc2s1`, the pIC50 is 6.06 in assay [2] and 6.15 in assay [1].
Consider `CC(C)c1ccc(Nc2nn3c(=O)cc(C(F)(F)F)nc3s2)cc1`, for which the pIC50 in assay [2] was 5.70; in assay [1], 4.50.
On to `C=CCNc1nn2c(=O)cc(C(F)(F)F)nc2s1`, for which the pIC50 in assay [2] is 6.54; in assay [1] it was 6.05. In assay [3], the Ratio IC50 is 3.
With `CCOc1ccccc1-c1nn2c(=O)cc(C(F)(F)F)nc2s1`, the values for the negative-log IC50 (pIC50) in assay [2] and in assay [1] were 5.34 and less than 4.00, respectively.
`O=c1cc(C(F)(F)F)nc2sc(-c3cccc([N+](=O)[O-])c3)nn12`: the pIC50 in assay [2] was 6.21; in assay [1], 6.32.
For `O=c1cc(C(F)(F)F)nc2sc(-c3ccc(OC(F)(F)F)cc3)nn12`, the pIC50 in assay [2] is less than 4.00; in assay [1], 6.62.
Take `CCc1ccc(-c2nn3c(=O)cc(C(F)(F)F)nc3s2)cc1`: the pIC50 was less than 4.00 in assay [2] and 5.34 in assay [1].
With `CCCNc1nn2c(=O)cc(C(F)(F)F)nc2s1`, the negative-log IC50 (pIC50) in assay [2] is 5.84; in assay [1] it was 6.51.
Turning to `O=c1cc(C(F)(F)F)nc2sc(-c3cccc(F)c3)nn12`, the negative-log IC50 (pIC50) was 5.86 in assay [2] and 6.13 in assay [1].
`CCCCCNc1nn2c(=O)cc(C(F)(F)F)nc2s1`: the negative logarithm of the IC50 (pIC50) in assay [2] is 6.21; in assay [1], 6.12.
In the same order, the values of `CN(N)c1nn2c(=O)cc(C(F)(F)F)nc2s1` are 5.69 and 5.65.
